Test results from the NIST ThermoML archive (doi:10.1021/je0500431).
± gives the expanded uncertainty stated by the source.

Experiments:
[1] = for surface tension liquid-gas: Ring tensiometer; for mass density: 101.33 kPa, Liquid
[2] = xn = mol fraction of the nth substance listed; settings: Ring tensiometer

CCCO [propan-1-ol]
[1]
Settings	mass density [kg/m3]	surface tension liquid-gas [mN/m]
293.15 K	803.1 ± 0.7	23.73 ± 0.37
298.15 K	799.3 ± 0.7	23.3 ± 0.37
303.15 K	–	22.9 ± 0.36
308.15 K	–	22.52 ± 0.36
313.15 K	–	22.1 ± 0.35
318.15 K	783.2 ± 0.7	21.68 ± 0.35
323.15 K	–	21.27 ± 0.34

CCC(C)O (centres undefined) [butan-2-ol]
[1]
Settings	mass density [kg/m3]	surface tension liquid-gas [mN/m]
293.15 K	807.1 ± 0.6	23.18 ± 0.35
298.15 K	802.9 ± 0.6	22.74 ± 0.34
303.15 K	–	22.38 ± 0.34
308.15 K	–	21.94 ± 0.33
313.15 K	–	21.56 ± 0.33
318.15 K	785.5 ± 0.6	21.11 ± 0.32
323.15 K	–	20.76 ± 0.32

OCc1ccccc1 [benzenemethanol] + CCCO
surface tension liquid-gas [mN/m], [2]
Settings	x2 = 0	x2 = 0.003	x2 = 0.0062	x2 = 0.0077	x2 = 0.0116	x2 = 0.0212	x2 = 0.0326	x2 = 0.0498
293.15 K	39.05 ± 0.57	37.57 ± 0.55	37.01 ± 0.54	36.88 ± 0.54	36.75 ± 0.54	36.35 ± 0.53	35.95 ± 0.53	35.62 ± 0.52
298.15 K	38.58 ± 0.56	37.07 ± 0.54	36.62 ± 0.54	36.48 ± 0.53	36.36 ± 0.53	35.98 ± 0.53	35.6 ± 0.52	35.22 ± 0.52
303.15 K	38.12 ± 0.55	36.6 ± 0.54	36.23 ± 0.53	36.12 ± 0.53	36 ± 0.53	35.62 ± 0.52	35.3 ± 0.52	34.86 ± 0.51
308.15 K	37.63 ± 0.55	36.15 ± 0.53	35.84 ± 0.53	35.74 ± 0.52	35.63 ± 0.52	35.23 ± 0.52	34.98 ± 0.51	34.48 ± 0.51
313.15 K	37.16 ± 0.54	35.64 ± 0.52	35.44 ± 0.52	35.36 ± 0.52	35.2 ± 0.52	34.83 ± 0.51	34.67 ± 0.51	34.14 ± 0.5
318.15 K	36.63 ± 0.54	35.19 ± 0.52	35.07 ± 0.52	35 ± 0.52	34.85 ± 0.51	34.5 ± 0.51	34.38 ± 0.51	33.76 ± 0.5
323.15 K	36.18 ± 0.53	34.73 ± 0.51	34.68 ± 0.51	34.64 ± 0.51	34.44 ± 0.51	34.13 ± 0.5	34.03 ± 0.5	33.41 ± 0.49

OCc1ccccc1 [benzenemethanol] + CCCCO
surface tension liquid-gas [mN/m], [2]
Settings	x2 = 0	x2 = 0.0034	x2 = 0.0044	x2 = 0.0071	x2 = 0.0117	x2 = 0.0213	x2 = 0.0303	x2 = 0.0492
293.15 K	39.05 ± 0.57	37.89 ± 0.55	37.67 ± 0.55	37.12 ± 0.54	36.88 ± 0.54	36.62 ± 0.53	36.46 ± 0.53	35.94 ± 0.53
298.15 K	38.58 ± 0.56	37.43 ± 0.55	37.23 ± 0.54	36.67 ± 0.54	36.48 ± 0.53	36.17 ± 0.53	35.99 ± 0.53	35.49 ± 0.52
303.15 K	38.12 ± 0.55	36.95 ± 0.54	36.79 ± 0.54	36.22 ± 0.53	36.03 ± 0.53	35.68 ± 0.52	35.52 ± 0.52	35.06 ± 0.51
308.15 K	37.63 ± 0.55	36.5 ± 0.53	36.36 ± 0.53	35.77 ± 0.52	35.6 ± 0.52	35.18 ± 0.52	35.02 ± 0.51	34.64 ± 0.51
313.15 K	37.16 ± 0.54	36.06 ± 0.53	35.93 ± 0.53	35.33 ± 0.52	35.1 ± 0.52	34.74 ± 0.51	34.57 ± 0.51	34.16 ± 0.5
318.15 K	36.63 ± 0.54	35.63 ± 0.52	35.51 ± 0.52	34.84 ± 0.51	34.66 ± 0.51	34.27 ± 0.51	34.02 ± 0.5	33.74 ± 0.5
323.15 K	36.18 ± 0.53	35.24 ± 0.52	35.08 ± 0.52	34.44 ± 0.51	34.18 ± 0.5	33.84 ± 0.5	33.59 ± 0.5	33.35 ± 0.49

CCCCCO [pentan-1-ol]
[1]
Settings	mass density [kg/m3]	surface tension liquid-gas [mN/m]
293.15 K	815.3 ± 1	25.69 ± 0.46
298.15 K	811.6 ± 1	25.29 ± 0.45
303.15 K	–	24.86 ± 0.44
308.15 K	–	24.49 ± 0.44
313.15 K	–	24.06 ± 0.43
318.15 K	796.6 ± 1	23.67 ± 0.42
323.15 K	–	23.3 ± 0.42

CC(C)O [propan-2-ol] + OCc1ccccc1
[2], x1 = 1
Settings	surface tension liquid-gas [mN/m]
293.15 K	21.3 ± 0.34
298.15 K	20.95 ± 0.34
303.15 K	20.55 ± 0.33
308.15 K	20.2 ± 0.33
313.15 K	19.83 ± 0.32
318.15 K	19.47 ± 0.32
323.15 K	19.09 ± 0.31

CCC(C)O (centres undefined) [butan-2-ol] + OCc1ccccc1
[2], x1 = 1
Settings	surface tension liquid-gas [mN/m]
293.15 K	23.18 ± 0.35
298.15 K	22.74 ± 0.34
303.15 K	22.38 ± 0.34
308.15 K	21.94 ± 0.33
313.15 K	21.56 ± 0.33
318.15 K	21.11 ± 0.32
323.15 K	20.76 ± 0.32

CCCO [propan-1-ol] + OCc1ccccc1
[2], x1 = 1
Settings	surface tension liquid-gas [mN/m]
293.15 K	23.73 ± 0.37
298.15 K	23.3 ± 0.37
303.15 K	22.9 ± 0.36
308.15 K	22.52 ± 0.36
313.15 K	22.1 ± 0.35
318.15 K	21.68 ± 0.35
323.15 K	21.27 ± 0.34

CCCCO [butan-1-ol]
[1]
Settings	mass density [kg/m3]	surface tension liquid-gas [mN/m]
293.15 K	810.4 ± 0.6	24.16 ± 0.36
298.15 K	806.5 ± 0.6	23.7 ± 0.36
303.15 K	–	23.26 ± 0.35
308.15 K	–	22.78 ± 0.35
313.15 K	–	22.39 ± 0.34
318.15 K	790.9 ± 0.6	21.99 ± 0.34
323.15 K	–	21.53 ± 0.33

OCc1ccccc1 [benzenemethanol]
[1]
Settings	mass density [kg/m3]	surface tension liquid-gas [mN/m]
293.15 K	1045.2 ± 0.6	39.05 ± 0.57
298.15 K	1041.4 ± 0.6	38.58 ± 0.56
303.15 K	–	38.12 ± 0.55
308.15 K	–	37.63 ± 0.55
313.15 K	–	37.16 ± 0.54
318.15 K	1025.8 ± 0.6	36.63 ± 0.54
323.15 K	–	36.18 ± 0.53

CCCCCO [pentan-1-ol] + OCc1ccccc1
[2], x1 = 1
Settings	surface tension liquid-gas [mN/m]
293.15 K	25.69 ± 0.46
298.15 K	25.29 ± 0.45
303.15 K	24.86 ± 0.44
308.15 K	24.49 ± 0.44
313.15 K	24.06 ± 0.43
318.15 K	23.67 ± 0.42
323.15 K	23.3 ± 0.42

CCCCO [butan-1-ol] + OCc1ccccc1
[2], x1 = 1
Settings	surface tension liquid-gas [mN/m]
293.15 K	24.16 ± 0.36
298.15 K	23.7 ± 0.36
303.15 K	23.26 ± 0.35
308.15 K	22.78 ± 0.35
313.15 K	22.39 ± 0.34
318.15 K	21.99 ± 0.34
323.15 K	21.53 ± 0.33

CCCC(C)O (centres undefined) [pentan-2-ol]
[1]
Settings	mass density [kg/m3]	surface tension liquid-gas [mN/m]
293.15 K	809.8 ± 1	23.7 ± 0.43
298.15 K	805.7 ± 1	23.28 ± 0.42
303.15 K	–	22.87 ± 0.41
308.15 K	–	22.43 ± 0.41
313.15 K	–	22.04 ± 0.4
318.15 K	788.8 ± 1	21.6 ± 0.39
323.15 K	–	21.16 ± 0.39

OCc1ccccc1 [benzenemethanol] + CCCC(C)O
surface tension liquid-gas [mN/m], [2]
Settings	x2 = 0	x2 = 0.0026	x2 = 0.0055	x2 = 0.0093	x2 = 0.0129	x2 = 0.0238	x2 = 0.0344	x2 = 0.0542
293.15 K	39.05 ± 0.57	36.98 ± 0.54	36.71 ± 0.54	36.43 ± 0.53	35.99 ± 0.53	35.72 ± 0.53	35.49 ± 0.52	35.08 ± 0.52
298.15 K	38.58 ± 0.56	36.48 ± 0.53	36.22 ± 0.53	35.95 ± 0.53	35.54 ± 0.52	35.32 ± 0.52	35.08 ± 0.52	34.61 ± 0.51
303.15 K	38.12 ± 0.55	35.95 ± 0.53	35.7 ± 0.52	35.53 ± 0.52	35.15 ± 0.52	34.9 ± 0.52	34.71 ± 0.51	34.1 ± 0.51
308.15 K	37.63 ± 0.55	35.46 ± 0.52	35.18 ± 0.52	35 ± 0.52	34.73 ± 0.51	34.49 ± 0.51	34.32 ± 0.51	33.61 ± 0.5
313.15 K	37.16 ± 0.54	34.97 ± 0.51	34.73 ± 0.51	34.54 ± 0.51	34.33 ± 0.51	34.05 ± 0.5	33.93 ± 0.5	33.1 ± 0.49
318.15 K	36.63 ± 0.54	34.44 ± 0.51	34.18 ± 0.51	34.07 ± 0.5	33.91 ± 0.5	33.63 ± 0.5	33.49 ± 0.5	32.69 ± 0.49
323.15 K	36.18 ± 0.53	33.91 ± 0.5	33.65 ± 0.5	33.56 ± 0.5	33.55 ± 0.5	33.28 ± 0.49	33.11 ± 0.49	32.19 ± 0.48

CC(C)O [propan-2-ol]
[1]
Settings	mass density [kg/m3]	surface tension liquid-gas [mN/m]
293.15 K	785.1 ± 0.7	21.3 ± 0.34
298.15 K	780.9 ± 0.8	20.95 ± 0.34
303.15 K	–	20.55 ± 0.33
308.15 K	–	20.2 ± 0.33
313.15 K	–	19.83 ± 0.32
318.15 K	763.3 ± 0.8	19.47 ± 0.32
323.15 K	–	19.09 ± 0.31

OCc1ccccc1 [benzenemethanol] + CCC(C)O
surface tension liquid-gas [mN/m], [2]
Settings	x2 = 0	x2 = 0.0026	x2 = 0.0056	x2 = 0.0078	x2 = 0.0107	x2 = 0.0246	x2 = 0.0366	x2 = 0.0512
293.15 K	39.05 ± 0.57	37.5 ± 0.55	37.14 ± 0.54	36.95 ± 0.54	36.4 ± 0.53	36.07 ± 0.53	35.65 ± 0.52	35.32 ± 0.52
298.15 K	38.58 ± 0.56	37.08 ± 0.54	36.75 ± 0.54	36.52 ± 0.53	36.05 ± 0.53	35.64 ± 0.52	35.25 ± 0.52	34.88 ± 0.51
303.15 K	38.12 ± 0.55	36.63 ± 0.54	36.31 ± 0.53	36.12 ± 0.53	35.72 ± 0.52	35.18 ± 0.52	34.83 ± 0.51	34.4 ± 0.51
308.15 K	37.63 ± 0.55	36.2 ± 0.53	35.97 ± 0.53	35.71 ± 0.52	35.39 ± 0.52	34.77 ± 0.51	34.46 ± 0.51	34 ± 0.5
313.15 K	37.16 ± 0.54	35.75 ± 0.52	35.55 ± 0.52	35.31 ± 0.52	35.03 ± 0.51	34.37 ± 0.51	34.03 ± 0.5	33.54 ± 0.49
318.15 K	36.63 ± 0.54	35.35 ± 0.52	35.17 ± 0.52	34.9 ± 0.51	34.67 ± 0.51	33.95 ± 0.5	33.62 ± 0.5	33.07 ± 0.49
323.15 K	36.18 ± 0.53	34.95 ± 0.51	34.8 ± 0.51	34.49 ± 0.51	34.34 ± 0.51	33.5 ± 0.5	33.24 ± 0.49	32.7 ± 0.48
